Laboratory results reported in patent US8575197B2, “Pyrolinone derivative and pharmaceutical composition comprising the same” (Shionogi & Co., Ltd., priority 2008, dated 2013).
pIC50: −log10 of the molar value.

What follows are molecules tested against human P2X3 receptor (Homo sapiens (Human), UniProt P56373) (assay: P2X3 receptor inhibition, ATP-evoked Fluo-3 calcium fluorescence (FDSS 3000)). Conditions: C6BU-1 cell transfected with human P2X3 receptor gene; ATP-evoked Fluo-3 fluorescence.
Type: cell-based
How it was run: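 C6BU-1 cells stably transfected with human P2X3, loaded with 4 μM Fluo-3-AM for 1 h at 37 °C in HEPES buffer pH 7.5 with probenecid. Compound added 5 min before 40 nM ATP solution; fluorescence followed 3 min. IC50 from ratio of peak post-ATP to baseline fluorescence.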

human P2X3 receptor, sequence (P56373 whole entry): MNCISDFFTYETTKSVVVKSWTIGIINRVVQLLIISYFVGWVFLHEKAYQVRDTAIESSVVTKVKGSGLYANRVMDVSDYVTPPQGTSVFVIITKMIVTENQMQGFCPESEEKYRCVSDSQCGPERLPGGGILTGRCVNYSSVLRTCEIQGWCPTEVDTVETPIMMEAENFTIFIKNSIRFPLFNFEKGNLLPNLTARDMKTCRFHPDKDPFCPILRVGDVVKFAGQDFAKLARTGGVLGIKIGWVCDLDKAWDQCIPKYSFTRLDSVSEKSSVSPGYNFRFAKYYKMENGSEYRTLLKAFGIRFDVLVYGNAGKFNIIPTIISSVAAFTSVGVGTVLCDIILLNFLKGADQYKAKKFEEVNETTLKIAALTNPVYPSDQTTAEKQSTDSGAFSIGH

Row | SMILES | pIC50
1 | COCc1ccccc1[C@@H]1C(C(=O)C(C)C)=C(O)C(=O)N1c1ccc(-c2cccs2)cc1 [Compound I-394] | 7.96
2 | CO/N=C(/C)c1ccc(N2C(=O)c3[nH]nc(C(C)(C)C)c3C2c2ccccc2OC)cc1 (stereo not drawn) [II-156] | 6.39
3 | COc1ccccc1C1C(C(=O)C(C)(C)C)=C(O)C(=O)N1c1ccc(-c2cscc2C)cc1 (stereo not drawn) [Compound I-193] | 6.00
4 | CC(C)(C)C(=O)C1=C(O)C(=O)N(c2ccc(-c3ccco3)cc2)C1c1cccnc1OCCO (stereo not drawn) [Compound I-173] | 6.86
5 | COCOc1ccccc1C1C(C(=O)CC(C)C)=C(O)C(=O)N1c1ccc(-c2noc(C)n2)cc1 (stereo not drawn) [Compound I-316] | 6.89
6 | COc1ccccc1C1C(C(=O)C(C)(C)C)=C(O)C(=O)N1c1ccc(SC)cc1 (stereo not drawn) [Compound I-052] | 6.73
7 | COc1ccc(F)cc1C1C(C(=O)C(C)C)=C(O)C(=O)N1c1ccc(-c2csc(C)c2)cc1 (stereo not drawn) [Compound I-453] | 7.39
8 | COc1ccccc1C1C(C(=O)C(C)C)=C(O)C(=O)N1c1ccc(-c2cccs2)cc1 (stereo not drawn) [Compound I-214] | 7.66
9 | COc1ccccc1C1c2c(C(C)(C)COC(C)=O)n[nH]c2C(=O)N1c1ccc(SC)cc1 (stereo not drawn) [II-010] | 6.87
10 | COCCOc1ncccc1C1C(C(=O)CC(C)(C)C)=C(O)C(=O)N1c1ccc(-c2ccsc2)cc1 (stereo not drawn) [Compound I-463] | 6.90
11 | CC(C)C(=O)C1=C(O)C(=O)N(c2ccc(-c3ccsc3)cc2)C1c1cccnc1N1CCOCC1 (stereo not drawn) [Compound I-525] | 7.74
12 | CC(C)Oc1ccccc1C1C(C(=O)C2CCCC2)=C(O)C(=O)N1c1ccc(-c2ccon2)cc1 (stereo not drawn) [Compound I-512] | 7.21
13 | COCCOc1ccccc1C1C(C(=O)C(C)(C)C)=C(O)C(=O)N1c1ccc(SC)cc1 (stereo not drawn) [Compound I-130] | 6.32
14 | COc1ncccc1C1c2c(C(C)(C)C)n[nH]c2C(=O)N1c1ccc(-c2ccsc2)cn1 (stereo not drawn) [II-262] | 7.41
15 | COc1ccccc1C1C(C(=O)C(C)(C)C)=C(O)C(=O)N1c1ccc(C(C)(C)C)cc1 (stereo not drawn) [Compound I-046] | 6.24
16 | COCCOc1ccccc1C1c2c(C(C)(C)C)n[nH]c2C(=O)N1c1ccc(-c2cccs2)cc1 (stereo not drawn) [II-114] | 7.92
17 | Cc1ccc(-c2ccc(N3C(=O)C(O)=C(C(=O)CC(C)C)C3c3cccnc3C(=O)N3CCCC3)cc2)s1 (stereo not drawn) [Compound I-579] | 6.37
18 | COCc1ccccc1C1C(C(=O)C(C)C)=C(O)C(=O)N1c1ccc(SC)cc1 (stereo not drawn) [Compound I-477] | 6.32
19 | CCOc1ccccc1C1C(C(=O)CC(C)C)=C(O)C(=O)N1c1ccc(-c2ccoc2)cc1 (stereo not drawn) [Compound I-347] | 7.33
20 | COc1ccccc1C1c2c(C(C)(C)C)n[nH]c2C(=O)N1c1ccc(C(C)C)cc1 (stereo not drawn) [II-197] | 6.97
21 | COc1ccc(F)cc1C1C(C(=O)C(C)C)=C(O)C(=O)N1c1ccc(-c2ccc(C)o2)cc1 (stereo not drawn) [Compound I-454] | 7.44
22 | CC(C)c1n[nH]c2c1C(c1ccccc1OCC(=O)O)N(c1ccc(-c3ccsc3)cc1)C2=O (stereo not drawn) [II-047] | 7.96
23 | COCCOc1ccccc1C1C(C(=O)C(C)C)=C(O)C(=O)N1c1ccc(-c2csc(C)n2)cc1 (stereo not drawn) [Compound I-424] | 6.28
24 | COCOc1ccccc1C1C(C(=O)CC(C)C)=C(O)C(=O)N1c1ccc(-c2ccoc2)cc1 (stereo not drawn) [Compound I-349] | 7.43
25 | COCc1ncccc1C1c2c(C(C)(C)C)n[nH]c2C(=O)N1c1ccc(-c2ccsc2)cc1 (stereo not drawn) [II-126] | 6.66
26 | COc1ccc2nc(N3C(=O)c4[nH]nc(C(C)(C)CO)c4C3c3ccccc3OC)sc2c1 (stereo not drawn) [II-142] | 6.98
27 | COCCOc1ncccc1C1C(C(=O)C(C)(C)C)=C(O)C(=O)N1c1ccc(SC)cc1 (stereo not drawn) [Compound I-150] | 6.38
28 | CCNC(=O)c1ccc(C(=O)C2=C(O)C(=O)N(c3ccc(-c4ccon4)cc3)C2C(CC)CC)cc1 (stereo not drawn) [Compound I-004] | 7.92
29 | COCCOc1ccccc1C1C(S(=O)(=O)C(C)C)=C(O)C(=O)N1c1ccc(-c2ccsc2)cc1 (stereo not drawn) [Compound I-563] | 7.38
30 | CC(C)(C)c1n[nH]c2c1C(c1ccccc1CO)N(c1ccc(-c3ccon3)cc1)C2=O (stereo not drawn) [II-113] | 6.08
